Results on two compounds are retold here after US20170342451A1, “BIOSYNTHESIS OF PACLITAXEL INTERMEDIATE” (Board of Trustees of Michigan State University, priority 2012, published 2017).

For the test, the target named is T1, TycA (Brevibacillus parabrevis, UniProt P09095).
T1 construct: this wild-type tycA cDNA encoding the A-, T-, and E-domains was subcloned into a pSU18 vector; made in house; host or cells: Escherichia coli BL21(DE3)
T1 sequence (P09095 with tags, fused parts or gaps): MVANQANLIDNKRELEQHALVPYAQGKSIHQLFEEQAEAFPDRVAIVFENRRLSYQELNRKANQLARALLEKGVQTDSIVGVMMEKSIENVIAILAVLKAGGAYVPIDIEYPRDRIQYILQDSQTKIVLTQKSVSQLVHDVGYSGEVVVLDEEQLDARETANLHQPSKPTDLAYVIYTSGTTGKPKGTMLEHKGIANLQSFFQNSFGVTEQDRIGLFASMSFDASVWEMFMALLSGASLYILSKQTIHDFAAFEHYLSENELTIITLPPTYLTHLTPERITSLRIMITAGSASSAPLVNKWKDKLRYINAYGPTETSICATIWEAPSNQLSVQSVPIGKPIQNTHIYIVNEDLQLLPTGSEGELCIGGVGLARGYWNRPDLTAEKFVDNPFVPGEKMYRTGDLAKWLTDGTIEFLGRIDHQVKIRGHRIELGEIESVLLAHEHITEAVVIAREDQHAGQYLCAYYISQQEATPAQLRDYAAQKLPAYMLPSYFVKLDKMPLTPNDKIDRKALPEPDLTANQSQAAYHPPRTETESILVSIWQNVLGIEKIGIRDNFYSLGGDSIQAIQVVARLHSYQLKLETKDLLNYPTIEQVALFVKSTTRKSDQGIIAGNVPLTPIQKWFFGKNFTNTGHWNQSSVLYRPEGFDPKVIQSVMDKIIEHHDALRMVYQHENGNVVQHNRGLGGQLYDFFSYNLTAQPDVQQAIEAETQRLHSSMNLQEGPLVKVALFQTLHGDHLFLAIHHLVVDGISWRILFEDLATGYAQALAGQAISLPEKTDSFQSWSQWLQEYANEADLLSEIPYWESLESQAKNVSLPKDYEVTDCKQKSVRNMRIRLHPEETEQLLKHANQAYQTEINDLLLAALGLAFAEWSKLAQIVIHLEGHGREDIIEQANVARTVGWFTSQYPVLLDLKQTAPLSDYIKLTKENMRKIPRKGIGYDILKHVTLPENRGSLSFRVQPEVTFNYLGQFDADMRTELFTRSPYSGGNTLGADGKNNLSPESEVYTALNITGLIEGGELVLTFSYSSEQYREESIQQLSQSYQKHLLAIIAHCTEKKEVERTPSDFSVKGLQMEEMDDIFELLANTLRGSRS
Kind of test: N-acetylcysteamine ligase reaction kinetics, TycA. In kind it is biochemical, Brevibacillus brevis. The settings on record: NAC with (S)-α-Phe as cosubstrate; for kcat^NAC: TycA with NAC at apparent saturation. The method, then:
Substrates (S)-α-phenylalanine, (R)-β-phenylalanine, and (2R,3S)-phenylisoserine (each at 1 mM) were separately incubated with TycA or TycA-S563A (20 μg) in the presence of N-acetylcysteamine (NAC; 1 mM), ATP (1 mM), and Mg^2+ (3 mM) to establish steady-state conditions with respect to protein concentration and time at 31° C. Under steady-state conditions, either (S)-phenylalanine, (R)-β-phenylalanine, or (2R,3S)-phenylisoserine at 5, 10, 20, 40, 80, 160, 250, 500, 1000 and 2000 μM was separately incubated with TycA or TycA-S563A (20 μg), ATP (1 mM), Mg^2+ (3 mM), and N-acetylcysteamine (1 mM, ‘NAC’) in duplicate, single stopped-time ([…]) 100 μL assays. The reactions were quenched by acidification to a pH of about 2 (10% formic acid in distilled water). […] The samples were analyzed on a Quattro-Premier Electro-Spray Mass Spectrometer coupled with Acquity® UPLC system fitted with a C18 Ascentis Express column (2.5×50 mm, 2.7 μm) at 30° C. […] In brief, the effluent from the chromatography column was directed to the Quattro Premier ESI mass spectrometer, in MRM scan mode, to quantify the biosynthetic acyl SNAC products. […] A standard curve was used to convert the peak area under the curve of the monitored fragment ion to concentration for each biosynthetic phenylpropionyl SNAC.
Authentic (5)-α-phenylalanyl, (R/S)-β-phenylalanyl- and (2R,3S)-phenylisoserinyl-SNAC were used to construct the standard curves by correlating the peak area under the curve of the monitored ion to concentration of the standard (at 0.16, 0.32, 0.64, 1.3, 2.5, 5, 10, 20, 40, 80, 160 and 320 μM) using linear regression analysis.
The KM values of TycA and TycA-S563A for N-acetylcysteamine (NAC) was assessed by incubating each enzyme separately with (S)-α-phenylalanine (1 mM), MgCl2 (3 mM), ATP (1 mM), and N-acetylcysteamine at 5, 10, 20, 40, 80, 160, 250, 500, 1000 and 2000 μM at 31° C. for 20 min. […]

Each structure is given as a SMILES string.

By Km is commonly meant the concentration of substrate that gives half-maximal velocity.

For the compound `N[C@H](CC(=O)O)c1ccccc1` [(R)-β-Phe, (R)-β-phenylalanine], the “kcat^NAC” value was determined as 0.006 ± 0.001 s⁻¹. `N[C@@H](c1ccccc1)[C@@H](O)C(=O)O` [(2R,3S)-PheIso, (2R,3S)-phenylisoserine]: the “kcat^NAC” value turned out to be 0.00317 ± 0.00017 s⁻¹. The Km (TycA with NAC) is 132 ± 56 µM.
